Measured values: ChEMBL document CHEMBL3785012, “Cell-penetrating conjugates of pentaglutamylated methotrexate as potential anticancer drugs against resistant tumor cells” (Eur J Med Chem, 2016)
Residues, ends and D or L forms follow the SMILES beside them. *: point of attachment. DAMPA = CN(Cc1cnc2nc(N)nc(N)c2n1)c1ccc(C(=O)*)cc1

Legend:
MDA-MB-231 [1] = assay: Cytostatic activity against human MDA-MB-231 cells preincubated for 3 hrs followed by serum treatment for 72 hrs measured on day 4 by MTT assay; type: functional, cell-based
MCF7 [2] = assay: Cytostatic activity against human MCF7 cells preincubated for 3 hrs followed by serum treatment for 72 hrs measured on day 4 by MTT assay; type: functional, cell-based
MCF7 [3] = assay: Drug uptake in human MCF7 cells at 1 uM preincubated for 90 mins followed by compound wash out and subsequent trypsin addition for 10 mins by 5 (6)-carboxy-fluorescein based flow cytometric analysis; type: ADME, cell-based; settings: mcf7, 10 min
MCF7 [4] = assay: Drug uptake in human MCF7 cells at 5 uM preincubated for 90 mins followed by compound wash out and subsequent trypsin addition for 10 mins by 5 (6)-carboxy-fluorescein based flow cytometric analysis; type: ADME, cell-based; settings: mcf7, 10 min
MCF7 [5] = assay: Drug uptake in human MCF7 cells at 10 uM preincubated for 90 mins followed by compound wash out and subsequent trypsin addition for 10 mins by 5 (6)-carboxy-fluorescein based flow cytometric analysis; type: ADME, cell-based; settings: mcf7, 10 min
MDA-MB-231 [6] = assay: Drug uptake in human MDA-MB-231 cells at 1 to 10 uM preincubated for 90 mins followed by compound wash out and subsequent trypsin addition for 10 mins by 5 (6)-carboxy-fluorescein based flow cytometric analysis; type: ADME, cell-based; settings: mda-mb-231, 10 min
MCF7 [7] = assay: Drug uptake in human MCF7 cells at 1 to 10 uM preincubated for 90 mins followed by compound wash out and subsequent trypsin addition for 10 mins by 5 (6)-carboxy-fluorescein based flow cytometric analysis; type: ADME, cell-based; settings: mcf7, 10 min

## N=C(N)NCCC[C@H](NC(=O)[C@H](CCCNC(=N)N)NC(=O)[C@H](CCCNC(=N)N)NC(=O)[C@H](CCCNC(=N)N)NC(=O)[C@H](CCCNC(=N)N)NC(=O)[C@H](CCCNC(=N)N)NC(=O)[C@H](CCCNC(=N)N)NC(=O)[C@@H](N)CCCNC(=N)N)C(=O)O
MDA-MB-231 [1]
  IC50: > 100 µM
MCF7 [2]
  IC50: 100 µM
MCF7 [3]
  Flu intensity: 975
MCF7 [4]
  Flu intensity: < 8669
MCF7 [5]
  Flu intensity: < 52928
MDA-MB-231 [6]
  Drug uptake: Active

## CN(Cc1cnc2nc(N)nc(N)c2n1)c1ccc(C(=O)N[C@@H](CCC(=O)O)C(=O)N[C@@H](CCCNC(=N)N)C(=O)N[C@@H](CCCNC(=N)N)C(=O)N[C@@H](CCCNC(=N)N)C(=O)N[C@@H](CCCNC(=N)N)C(=O)N[C@@H](CCCNC(=N)N)C(=O)N[C@@H](CCCNC(=N)N)C(=O)N[C@@H](CCCNC(=N)N)C(=O)N[C@@H](CCCNC(=N)N)C(=O)O)cc1
MDA-MB-231 [1]
  IC50: 100 µM
MCF7 [2]
  IC50: > 100 µM

## CC[C@H](C)[C@H](NC(=O)[C@H](CCCCN)NC(=O)[C@@H](NC(=O)[C@H](CCC(N)=O)NC(=O)[C@H](CCCNC(=N)N)NC(=O)CNC(=O)[C@H](CC(C)C)NC(=O)[C@H](Cc1ccccc1)NC(=O)CNC(=O)[C@H](CCC(=O)O)NC(=O)[C@H](CCC(=O)O)NC(=O)[C@H](CCC(=O)O)NC(=O)[C@H](CCC(=O)O)NC(=O)[C@H](CCC(=O)O)NC(=O)[C@H](CCC(=O)O)NC(=O)c1ccc(N(C)Cc2cnc3nc(N)nc(N)c3n2)cc1)[C@@H](C)CC)C(=O)N[C@@H](Cc1c[nH]c2ccccc12)C(=O)N[C@@H](Cc1ccccc1)C(=O)N[C@@H](CCC(N)=O)C(=O)N[C@@H](CC(N)=O)C(=O)N[C@@H](CCCNC(=N)N)C(=O)N[C@@H](CCCNC(=N)N)C(=O)N[C@@H](CCCCN)C(=O)N[C@@H](Cc1c[nH]c2ccccc12)C(=O)N[C@@H](CCCCN)C(=O)N[C@@H](CCCCN)C(=O)O ({DAMPA}-EEEEEEGFLGRQIKIWFQNRRKWKK-OH)
MDA-MB-231 [1]
  IC50: 0.4 µM
MCF7 [2]
  IC50: 0.3 µM
MDA-MB-231 [6]
  Drug uptake: Active
MCF7 [7]
  Drug uptake: Active

## CC(C)C[C@H](NC(=O)[C@H](Cc1ccccc1)NC(=O)CNC(=O)[C@H](CCC(=O)O)NC(=O)[C@H](CCC(=O)O)NC(=O)[C@H](CCC(=O)O)NC(=O)[C@H](CCC(=O)O)NC(=O)[C@H](CCC(=O)O)NC(=O)[C@H](CCC(=O)O)NC(=O)c1ccc(N(C)Cc2cnc3nc(N)nc(N)c3n2)cc1)C(=O)NCC(=O)N[C@@H](CCCNC(=N)N)C(=O)N[C@@H](CCCNC(=N)N)C(=O)N[C@@H](CCCNC(=N)N)C(=O)N[C@@H](CCCNC(=N)N)C(=O)N[C@@H](CCCNC(=N)N)C(=O)N[C@@H](CCCNC(=N)N)C(=O)N[C@@H](CCCNC(=N)N)C(=O)N[C@@H](CCCNC(=N)N)C(=O)O ({DAMPA}-EEEEEEGFLGRRRRRRRR-OH)
MDA-MB-231 [1]
  IC50: 100 µM
MCF7 [2]
  IC50: > 100 µM

## CC[C@H](C)[C@H](NC(=O)[C@H](CCCCN)NC(=O)[C@@H](NC(=O)[C@H](CCC(N)=O)NC(=O)[C@H](CCCNC(=N)N)NC(=O)[C@H](CCC(=O)O)NC(=O)[C@H](CCC(=O)O)NC(=O)[C@H](CCC(=O)O)NC(=O)[C@H](CCC(=O)O)NC(=O)[C@H](CCC(=O)O)NC(=O)[C@H](CCC(=O)O)NC(=O)c1ccc(N(C)Cc2cnc3nc(N)nc(N)c3n2)cc1)[C@@H](C)CC)C(=O)N[C@@H](Cc1c[nH]c2ccccc12)C(=O)N[C@@H](Cc1ccccc1)C(=O)N[C@@H](CCC(N)=O)C(=O)N[C@@H](CC(N)=O)C(=O)N[C@@H](CCCNC(=N)N)C(=O)N[C@@H](CCCNC(=N)N)C(=O)N[C@@H](CCCCN)C(=O)N[C@@H](Cc1c[nH]c2ccccc12)C(=O)N[C@@H](CCCCN)C(=O)N[C@@H](CCCCN)C(=O)O ({DAMPA}-EEEEEERQIKIWFQNRRKWKK-OH)
MDA-MB-231 [1]
  IC50: 0.1 µM
MCF7 [2]
  IC50: > 100 µM
MDA-MB-231 [6]
  Drug uptake: Active
MCF7 [7]
  Drug uptake: Active

## CN(Cc1cnc2nc(N)nc(N)c2n1)c1ccc(C(=O)N[C@@H](CCC(=O)O)C(=O)N[C@@H](CCC(=O)O)C(=O)N[C@@H](CCC(=O)O)C(=O)N[C@@H](CCC(=O)O)C(=O)N[C@@H](CCC(=O)O)C(=O)N[C@@H](CCC(=O)O)C(=O)N[C@@H](CCCNC(=N)N)C(=O)N[C@@H](CCCNC(=N)N)C(=O)N[C@@H](CCCNC(=N)N)C(=O)N[C@@H](CCCNC(=N)N)C(=O)N[C@@H](CCCNC(=N)N)C(=O)N[C@@H](CCCNC(=N)N)C(=O)N[C@@H](CCCNC(=N)N)C(=O)N[C@@H](CCCNC(=N)N)C(=O)O)cc1 ({DAMPA}-EEEEEERRRRRRRR-OH)
MDA-MB-231 [1]
  IC50: > 100 µM
MCF7 [2]
  IC50: > 100 µM
MDA-MB-231 [6]
  Drug uptake: Active
MCF7 [7]
  Drug uptake: Active

## CC[C@H](C)[C@H](NC(=O)[C@H](CCCCN)NC(=O)[C@@H](NC(=O)[C@H](CCC(N)=O)NC(=O)[C@H](CCCNC(=N)N)NC(=O)CNC(=O)[C@H](CC(C)C)NC(=O)[C@H](Cc1ccccc1)NC(=O)CNC(=O)[C@H](CCC(=O)O)NC(=O)c1ccc(N(C)Cc2cnc3nc(N)nc(N)c3n2)cc1)[C@@H](C)CC)C(=O)N[C@@H](Cc1c[nH]c2ccccc12)C(=O)N[C@@H](Cc1ccccc1)C(=O)N[C@@H](CCC(N)=O)C(=O)N[C@@H](CC(N)=O)C(=O)N[C@@H](CCCNC(=N)N)C(=O)N[C@@H](CCCNC(=N)N)C(=O)N[C@@H](CCCCN)C(=O)N[C@@H](Cc1c[nH]c2ccccc12)C(=O)N[C@@H](CCCCN)C(=O)N[C@@H](CCCCN)C(=O)O ({DAMPA}-EGFLGRQIKIWFQNRRKWKK-OH)
MDA-MB-231 [1]
  IC50: 5.5 µM
MCF7 [2]
  IC50: 13.9 µM
MDA-MB-231 [6]
  Drug uptake: Active
MCF7 [7]
  Drug uptake: Active

## CC(C)C[C@H](NC(=O)[C@H](Cc1ccccc1)NC(=O)CNC(=O)[C@H](CCC(=O)O)NC(=O)c1ccc(N(C)Cc2cnc3nc(N)nc(N)c3n2)cc1)C(=O)NCC(=O)N[C@@H](CCCNC(=N)N)C(=O)N[C@@H](CCCNC(=N)N)C(=O)N[C@@H](CCCNC(=N)N)C(=O)N[C@@H](CCCNC(=N)N)C(=O)N[C@@H](CCCNC(=N)N)C(=O)N[C@@H](CCCNC(=N)N)C(=O)N[C@@H](CCCNC(=N)N)C(=O)N[C@@H](CCCNC(=N)N)C(=O)O ({DAMPA}-EGFLGRRRRRRRR-OH)
MDA-MB-231 [1]
  IC50: 19.1 µM
MCF7 [2]
  IC50: 31.3 µM

## CC[C@H](C)[C@H](NC(=O)[C@H](CCCCN)NC(=O)[C@@H](NC(=O)[C@H](CCC(N)=O)NC(=O)[C@H](CCCNC(=N)N)NC(=O)[C@H](CCC(=O)O)NC(=O)c1ccc(N(C)Cc2cnc3nc(N)nc(N)c3n2)cc1)[C@@H](C)CC)C(=O)N[C@@H](Cc1c[nH]c2ccccc12)C(=O)N[C@@H](Cc1ccccc1)C(=O)N[C@@H](CCC(N)=O)C(=O)N[C@@H](CC(N)=O)C(=O)N[C@@H](CCCNC(=N)N)C(=O)N[C@@H](CCCNC(=N)N)C(=O)N[C@@H](CCCCN)C(=O)N[C@@H](Cc1c[nH]c2ccccc12)C(=O)N[C@@H](CCCCN)C(=O)N[C@@H](CCCCN)C(=O)O ({DAMPA}-ERQIKIWFQNRRKWKK-OH)
MDA-MB-231 [1]
  IC50: 12.9 µM
MCF7 [2]
  IC50: 40.2 µM

## CN(Cc1cnc2nc(N)nc(N)c2n1)c1ccc(C(=O)N[C@@H](CCC(=O)O)C(=O)O)cc1 [METHOTREXATE]
MDA-MB-231 [1]
  IC50: > 100 µM
MCF7 [2]
  IC50: 0.8 µM
